Each block holds one compound with its values, some of them ahead of it. Calls of active or inactive are those of the source. No cut-off for these calls is given here.
Assays:
Coagulation factor X [1] = target: T1, Coagulation factor X (Homo sapiens, UniProt P00742); experiment: In vitro inhibitory activity against factor Xa
Prothrombin = Prothrombin (Homo sapiens, UniProt P00734); experiment: In vitro inhibitory activity against serine protease thrombin
[2] = In vitro anticoagulant activity was measured by plasma based on thrombin generation (TG) assay; format: functional
[3] = In vivo half life period after intravenous administration in rat; format: ADME, organism-based
[4] = In vitro anticoagulant activity was measured by activated partial thromboplastin time (APTT) assay; format: functional
Serine protease 1 = Serine protease 1 (Homo sapiens, UniProt P07477); experiment: Inhibitory activity against Trypsin
Serine protease 1, sequence (P07477 whole entry): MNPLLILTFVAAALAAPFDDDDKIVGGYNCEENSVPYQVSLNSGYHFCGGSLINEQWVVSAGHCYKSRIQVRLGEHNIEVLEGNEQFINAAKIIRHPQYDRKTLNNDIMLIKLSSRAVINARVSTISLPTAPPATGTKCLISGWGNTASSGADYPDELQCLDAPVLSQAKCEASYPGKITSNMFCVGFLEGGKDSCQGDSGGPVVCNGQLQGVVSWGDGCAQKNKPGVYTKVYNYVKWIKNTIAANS

[5] = In vitro anticoagulant activity was measured by prothrombin time (PT) assay; format: functional
Oryctolagus cuniculus [6] = experiment: In vivo plasma concentration required to inhibit thrombosis formation in rabbit; format: functional, organism-based
Oryctolagus cuniculus [7] = experiment: In vivo inhibition thrombosis formation in rabbit; format: functional
[8] = target: Vitamin K-dependent protein C (Homo sapiens, UniProt P04070); experiment: Inhibitory activity against activated protein C (aPC)
Vitamin K-dependent protein C, sequence (P04070 43-197 limits assumed): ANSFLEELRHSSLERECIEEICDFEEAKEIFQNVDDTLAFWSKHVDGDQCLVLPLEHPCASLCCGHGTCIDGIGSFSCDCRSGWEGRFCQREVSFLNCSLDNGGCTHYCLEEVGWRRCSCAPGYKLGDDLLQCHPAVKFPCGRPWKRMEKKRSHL
Vitamin K-dependent protein C, sequence (P04070 212-461 limits assumed): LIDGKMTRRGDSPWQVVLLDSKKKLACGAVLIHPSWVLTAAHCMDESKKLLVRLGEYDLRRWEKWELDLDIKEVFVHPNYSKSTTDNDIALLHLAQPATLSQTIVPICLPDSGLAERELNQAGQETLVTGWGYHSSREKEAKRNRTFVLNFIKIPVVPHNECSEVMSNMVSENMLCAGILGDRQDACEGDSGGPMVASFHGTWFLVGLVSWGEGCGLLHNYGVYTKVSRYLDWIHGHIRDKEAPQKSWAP

Plasminogen = Plasminogen (Homo sapiens, UniProt P00747); experiment: Inhibitory activity against Plasmin
Plasminogen, sequence (P00747 97-580 limits assumed): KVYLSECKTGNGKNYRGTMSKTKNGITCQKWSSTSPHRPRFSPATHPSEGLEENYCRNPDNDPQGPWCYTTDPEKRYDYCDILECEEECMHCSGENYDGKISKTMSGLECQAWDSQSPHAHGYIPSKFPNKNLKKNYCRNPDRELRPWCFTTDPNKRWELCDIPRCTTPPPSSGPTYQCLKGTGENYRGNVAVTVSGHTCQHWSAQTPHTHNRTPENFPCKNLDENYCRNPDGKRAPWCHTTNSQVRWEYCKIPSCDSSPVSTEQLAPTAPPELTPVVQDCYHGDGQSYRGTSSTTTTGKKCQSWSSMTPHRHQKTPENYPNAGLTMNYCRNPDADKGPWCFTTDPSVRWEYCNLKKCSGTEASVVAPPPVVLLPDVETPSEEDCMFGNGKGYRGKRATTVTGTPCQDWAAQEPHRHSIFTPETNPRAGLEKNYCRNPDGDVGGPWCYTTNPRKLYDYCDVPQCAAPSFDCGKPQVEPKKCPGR
Plasminogen, sequence (P00747 581-810 limits assumed): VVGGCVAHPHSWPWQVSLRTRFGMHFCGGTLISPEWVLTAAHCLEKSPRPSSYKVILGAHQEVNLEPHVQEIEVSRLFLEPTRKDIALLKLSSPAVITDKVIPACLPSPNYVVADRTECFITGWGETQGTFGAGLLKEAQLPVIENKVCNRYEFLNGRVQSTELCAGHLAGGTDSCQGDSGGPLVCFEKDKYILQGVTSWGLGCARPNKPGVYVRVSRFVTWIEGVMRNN

[9] = Inhibitory activity against Kallikrein
Coagulation factor X [10] = target: T1, Coagulation factor X; experiment: (§1) In vitro binding affinity towards factor Xa
[11] = target: Tissue-type plasminogen activator (Homo sapiens, UniProt P00750); experiment: Inhibitory activity against tissue plasminogen activator (tissue plasminogen activator)
Tissue-type plasminogen activator, sequence (P00750 whole entry): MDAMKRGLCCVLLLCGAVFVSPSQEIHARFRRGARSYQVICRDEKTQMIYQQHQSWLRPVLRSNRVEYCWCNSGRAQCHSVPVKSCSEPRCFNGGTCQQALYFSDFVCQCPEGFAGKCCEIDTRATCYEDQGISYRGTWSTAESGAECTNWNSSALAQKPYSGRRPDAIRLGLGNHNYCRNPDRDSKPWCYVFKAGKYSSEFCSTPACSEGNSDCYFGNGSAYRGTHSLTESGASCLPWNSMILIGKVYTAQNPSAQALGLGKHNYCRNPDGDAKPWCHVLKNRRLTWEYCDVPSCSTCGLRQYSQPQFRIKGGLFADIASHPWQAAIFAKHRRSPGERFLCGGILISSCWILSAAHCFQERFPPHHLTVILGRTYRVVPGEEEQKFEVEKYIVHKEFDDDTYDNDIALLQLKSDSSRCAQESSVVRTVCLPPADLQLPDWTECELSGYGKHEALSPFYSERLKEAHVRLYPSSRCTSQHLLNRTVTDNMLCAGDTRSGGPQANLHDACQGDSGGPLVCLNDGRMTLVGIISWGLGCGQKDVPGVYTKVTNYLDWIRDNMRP

Coagulation factor X [12] = target: T1, Coagulation factor X; experiment: as §1; remark: listed apart in the source
Oryctolagus cuniculus [13] = species on record: Oryctolagus cuniculus; experiment: Inhibition thrombosis formation in rabbit; format: functional
Oryctolagus cuniculus [14] = species on record: Oryctolagus cuniculus; experiment: Plasma concentration required to inhibit thrombosis formation in rabbit; format: functional, organism-based
[15] = Half life period after intravenous administration in rat; format: ADME, organism-based; conditions: in vivo
Coagulation factor X [16] = target: T1, Coagulation factor X; experiment: In vitro binding affinity towards factor Xa; Not active

T1 sequence (P00742 41-179 limits assumed): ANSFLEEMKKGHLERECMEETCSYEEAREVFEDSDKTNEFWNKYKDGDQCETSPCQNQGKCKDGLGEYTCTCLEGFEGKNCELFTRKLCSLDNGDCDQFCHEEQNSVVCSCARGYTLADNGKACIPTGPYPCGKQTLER
T1 sequence (P00742 235-488 limits assumed): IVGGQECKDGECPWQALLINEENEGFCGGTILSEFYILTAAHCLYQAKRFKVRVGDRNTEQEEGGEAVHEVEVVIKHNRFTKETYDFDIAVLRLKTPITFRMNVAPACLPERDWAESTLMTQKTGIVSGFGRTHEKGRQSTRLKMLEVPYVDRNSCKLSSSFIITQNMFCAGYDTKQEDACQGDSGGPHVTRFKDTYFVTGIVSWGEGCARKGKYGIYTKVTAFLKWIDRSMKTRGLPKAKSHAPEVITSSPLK

Compound: N=C(N)NCCC[C@@H](NC(=O)CN1CCC[C@H](NS(=O)(=O)Cc2ccccc2)C1=O)C(=O)c1nccs1
IC50 (Coagulation factor X [1]): 0.029 µM
IC50 (Prothrombin): 0.138 µM

Compound: N#Cc1c(Cl)cccc1Oc1ccc(S(=O)(=O)N2CCN(CC(=O)NC(CCCNC(=N)N)C(=O)c3nccs3)C(=O)C2)cc1 (stereo not given)
IC50 (Coagulation factor X [1]): 0.038 µM
IC50 (Prothrombin): 4 µM

Compound: N=C(N)NCCC[C@@H](NC(=O)CN1CCN(C(=O)c2ccc(Cl)cc2)CC1=O)C(=O)c1nccs1
IC50 (Coagulation factor X [1]): 0.118 µM
IC50 (Prothrombin): 5 µM

Compound: N=C(N)NCCCC(NC(=O)CN1CCN(S(=O)(=O)c2cccc3nonc23)CC1=O)C(=O)c1nccs1 (stereo not given)
IC50 (Coagulation factor X [1]): 0.002 µM
IC50 (Prothrombin): 0.719 µM

Compound: N=C(N)NCCC[C@@H](NC(=O)CN1CCNCC1=O)C(=O)c1nccs1
IC50 (Coagulation factor X [1]): 2 µM
IC50 (Prothrombin): 220 µM

Compound: N=C(N)NCCC[C@@H](NC(=O)Cn1cccc(NS(=O)(=O)Cc2ccccc2)c1=O)C(=O)c1nccs1
IC50 (Prothrombin): 0.008 µM

Compound: N=C(N)NCCCC(NC(=O)CN1CCN(S(=O)(=O)/C=C/c2ccccc2)CC1=O)C(=O)c1nccs1 (stereo not given)
IC50 (Coagulation factor X [1]): 0.013 µM
IC50 (Prothrombin): 7 µM

Compound: N=C(N)NCCC[C@@H](NC(=O)CN1CCCC[C@H](NS(=O)(=O)Cc2ccccc2)C1=O)C(=O)c1nccs1
IC50 (Prothrombin): 0.038 µM

Compound: CC(=O)Nc1nc(C)c(S(=O)(=O)N2CCN(CC(=O)NC(CCCN=C(N)N)C(=O)c3nccs3)C(=O)C2)s1 (stereo not given)
IC50 (Coagulation factor X [1]): 0.058 µM
IC50 (Prothrombin): 4 µM

Compound: N=C(N)NCCCC(NC(=O)CN1CCN(S(=O)(=O)c2cc(Cl)c(Cl)cc2Cl)CC1=O)C(=O)c1nccs1 (stereo not given)
IC50 (Coagulation factor X [1]): 0.001 µM
IC50 (Prothrombin): 0.573 µM

Compound: N=C(N)NCCCC(NC(=O)CN1CCN(S(=O)(=O)c2ccc3c(Cl)cccc3c2)CC1=O)C(=O)c1nccs1 (stereo not given)
2x TG [2]: inactive
Ki (Coagulation factor X [12]): 0.0013 µM
2x APTT [4]: 12.5 µM
IC50 (Serine protease 1): 0.0205 µM
2x PT [5]: 12.5 µM
IC50 (Coagulation factor X [1]): 0.00079 µM
Inhibition (Oryctolagus cuniculus [13]): 0%
IC50 [8]: 170 µM
Plasma concentration (Oryctolagus cuniculus [14]): 0.2 µM
IC50 (Plasminogen): 1.88 µM
IC50 (Prothrombin): 2 µM
half-life [15]: 51 min
IC50 [9]: 0.034 µM
k_off (Coagulation factor X [16]): inactive
k_on (Coagulation factor X [16]): inactive
IC50 [11]: 0.74 µM

Compound: N=C(N)NCCC[C@@H](NC(=O)CN1CCN(C(=O)c2ccccc2)CC1=O)C(=O)c1nccs1
IC50 (Coagulation factor X [1]): 0.32 µM
IC50 (Prothrombin): 7 µM

Compound: N=C(N)NCCC[C@@H](NC(=O)CN1CCN(C(=O)Cc2ccc(Cl)cc2)CC1=O)C(=O)c1nccs1
IC50 (Coagulation factor X [1]): 0.017 µM
IC50 (Prothrombin): 11 µM

Compound: N=C(N)NCCCC(NC(=O)CN1CCN(S(=O)(=O)c2cccc3c(Cl)cccc23)CC1=O)C(=O)c1nccs1 (stereo not given)
IC50 (Coagulation factor X [1]): 0.00062 µM
IC50 (Prothrombin): 0.185 µM

Compound: Cc1nsc(C)c1S(=O)(=O)N1CCN(CC(=O)NC(CCCNC(=N)N)C(=O)c2nccs2)C(=O)C1 (stereo not given)
IC50 (Coagulation factor X [1]): 0.069 µM
IC50 (Prothrombin): 0.669 µM

Compound: N=C(N)NCCC[C@@H](NC(=O)CN1CCN(S(=O)(=O)Cc2ccccc2)CCC1=O)C(=O)c1nccs1
IC50 (Coagulation factor X [1]): 0.005 µM
IC50 (Prothrombin): 2 µM

Second part, led by results:

IC50 (Coagulation factor X [1]): 0.01 µM
IC50 (Prothrombin): 7 µM
Compound: N=C(N)NCCCC(NC(=O)CN1CCN(S(=O)(=O)c2ccc(NO)cc2)CC1=O)C(=O)c1nccs1 (stereo not given)

IC50 (Coagulation factor X [1]): 0.006 µM
IC50 (Prothrombin): 5 µM
Compound: N=C(N)NCCCC(NC(=O)CN1CCN(S(=O)(=O)c2ccc(N)cc2)CC1=O)C(=O)c1nccs1 (stereo not given)

half-life [3]: 22 min
IC50 (Serine protease 1): 0.0108 µM
IC50 [8]: > 180 µM
IC50 (Plasminogen): 10.7 µM
IC50 (Prothrombin): 1 µM
IC50 [9]: 0.406 µM
k off (Coagulation factor X [10]): 0.19 s⁻¹
k on (Coagulation factor X [10]): 3.4e+06 M⁻¹ s⁻¹
IC50 [11]: 1.88 µM
Compound: N=C(N)NCCC[C@@H](NC(=O)CN1CCN(S(=O)(=O)c2ccc(Cl)cc2)CC1=O)C(=O)c1nccs1
2x TG [2]: 0.52 µM
2x APTT [4]: 4.2 µM
2x PT [5]: 11.2 µM
Plasma concentration (Oryctolagus cuniculus [6]): 0.5 µM
Inhibition (Oryctolagus cuniculus [7]): 90%

IC50 (Coagulation factor X [1]): 0.0007 µM
IC50 (Prothrombin): 0.809 µM
Compound: N=C(N)NCCCC(NC(=O)CN1CCN(S(=O)(=O)c2ccc(Br)cc2)CC1=O)C(=O)c1nccs1 (stereo not given)

IC50 (Coagulation factor X [1]): 0.002 µM
IC50 (Prothrombin): 0.751 µM
Compound: N=C(N)NCCCC(NC(=O)CN1CCN(S(=O)(=O)c2ccc(F)cc2)CC1=O)C(=O)c1nccs1 (stereo not given)

IC50 (Coagulation factor X [1]): 0.032 µM
IC50 (Prothrombin): 3 µM
Compound: N#Cc1ccc(S(=O)(=O)N2CCN(CC(=O)NC(CCCNC(=N)N)C(=O)c3nccs3)C(=O)C2)cc1 (stereo not given)

IC50 (Coagulation factor X [1]): 0.116 µM
IC50 (Prothrombin): 5 µM
Compound: CC(=O)Nc1ccc(S(=O)(=O)N2CCN(CC(=O)NC(CCCNC(=N)N)C(=O)c3nccs3)C(=O)C2)cc1 (stereo not given)

From ChEMBL document CHEMBL1136598, “Design, synthesis, and structure-activity relationships of unsubstituted piperazinone-based transition state factor Xa inhibitors” (Bioorg Med Chem Lett, 2003)
